Like-named read-outs stand apart in the source and are kept apart here.
Assays:
rat CB2 = rat CB2 (Rattus norvegicus (Rat), UniProt Q9QZN9); assay: rat CB2 radioligand binding assay ([3H]CP 55,940 competition)
Description: (§1) The CB1 and CB2 radioligand binding assays described herein are utilized to ascertain the affinity of compounds of the present application for binding to CB2 relative to CB1 receptors.
HEK293 cells stably expressing rat CB2 receptors were grown until a confluent monolayer was formed. Briefly, the cells were harvested and homogenized in TE buffer (50 mM Tris-HCl, 1 mM MgCl2, and 1 mM EDTA) using a polytron for 2×10 second bursts in the presence of protease inhibitors, followed by centrifugation at 45,000×g for 20 minutes. The final membrane pellet was re-homogenized in storage buffer (50 mM Tris-HCl, 1 mM MgCl2, and 1 mM EDTA and 10% sucrose) and frozen at −78° C. until used. Saturation binding reactions were initiated by the addition of membrane preparation (protein concentration of 20 μg/well for rat CB2) into wells of a deep well plate containing [^3H]CP 55,940 (120 Ci/mmol, a nonselective CB agonist commercially available from Tocris) in assay buffer (50 mM Tris, 2.5 mM EDTA, 5 mM MgCl2, and 0.5 mg/mL fatty acid free BSA, pH 7.4). After 45 min incubation at 30° C., binding reaction was terminated by the addition of 300 μl/well of cold assay buffer followed by rapid vacuum filtration through a UniFilter-96 GF/C filter plates (pre-soaked in 1 mg/mL BSA for 2 hours). The bound activity was counted in a TopCount using Microscint-20. Saturation experiments were conducted with twelve concentrations of [^3H]CP 55,940 ranging from 0.01 to 8 nM. Competition experiments were conducted with 0.5 nM [^3H]CP 55,940 and five concentrations of displacing ligands selected from the range of 0.01 nM to […] addition of 10 μM unlabeled CP 55,940 (Tocris, Ellisville, Mo.) was used to assess nonspecific binding.

human CB2 receptors = human CB2 receptors (Homo sapiens (Human), UniProt P34972); assay: human CB2 radioligand binding assay ([3H]CP 55,940 competition)
Sequence of human CB2 receptors (P34972 whole entry): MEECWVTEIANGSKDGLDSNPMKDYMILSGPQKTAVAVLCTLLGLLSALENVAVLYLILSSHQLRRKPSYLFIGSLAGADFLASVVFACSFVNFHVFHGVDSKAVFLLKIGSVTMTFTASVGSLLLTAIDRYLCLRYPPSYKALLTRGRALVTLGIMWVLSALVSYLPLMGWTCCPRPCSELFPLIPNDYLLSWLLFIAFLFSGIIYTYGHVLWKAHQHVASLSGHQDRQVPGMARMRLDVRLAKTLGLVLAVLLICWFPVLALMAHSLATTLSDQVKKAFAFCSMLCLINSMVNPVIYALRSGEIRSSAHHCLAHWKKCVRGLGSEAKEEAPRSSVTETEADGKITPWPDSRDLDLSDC
Description: as §1
HEK293 cells stably expressing human CB2 receptors were grown until a confluent monolayer was formed. Briefly, the cells were harvested and homogenized in TE buffer (50 mM Tris-HCl, 1 mM MgCl2, and 1 mM EDTA) using a polytron for 2×10 second bursts in the presence of protease inhibitors, followed by centrifugation at 45,000×g for 20 minutes. The final membrane pellet was re-homogenized in storage buffer (50 mM Tris-HCl, 1 mM MgCl2, and 1 mM EDTA and 10% sucrose) and frozen at −78° C. until used. Saturation binding reactions were initiated by the addition of membrane preparation (protein concentration of 5 μg/well for human CB2) into wells of a deep well plate containing [^3H]CP 55,940 (120 Ci/mmol, a nonselective CB agonist commercially available from Tocris) in assay buffer (50 mM Tris, 2.5 mM EDTA, 5 mM MgCl2, and 0.5 mg/mL fatty acid free BSA, pH 7.4). After 90 min incubation at 30° C., binding reaction was terminated by the addition of 300 μL/well of cold assay buffer followed by rapid vacuum filtration through a UniFilter-96 GF/C filter plates (pre-soaked in 1 mg/mL BSA for 2 hours). The bound activity was counted in a TopCount using Microscint-20. Saturation experiments were conducted with twelve concentrations of [^3H]CP 55,940 ranging from 0.01 to 8 nM. Competition experiments were conducted with 0.5 nM [^3H]CP 55,940 and five concentrations (0.01 nM to 10 μM) of displacing ligands. The addition of 10 μM unlabeled CP 55,940 (Tocris, Ellisville, Mo.) was used to assess nonspecific binding.

[1] = HEK293 membranes, 0.5 nM [3H]CP 55,940, read-out: rat CB2 (Ki)
[2] = HEK293 membranes, 0.5 nM [3H]CP 55,940, read-out: human CB2 (Ki)

Sequence of rat CB2 (Q9QZN9 whole entry): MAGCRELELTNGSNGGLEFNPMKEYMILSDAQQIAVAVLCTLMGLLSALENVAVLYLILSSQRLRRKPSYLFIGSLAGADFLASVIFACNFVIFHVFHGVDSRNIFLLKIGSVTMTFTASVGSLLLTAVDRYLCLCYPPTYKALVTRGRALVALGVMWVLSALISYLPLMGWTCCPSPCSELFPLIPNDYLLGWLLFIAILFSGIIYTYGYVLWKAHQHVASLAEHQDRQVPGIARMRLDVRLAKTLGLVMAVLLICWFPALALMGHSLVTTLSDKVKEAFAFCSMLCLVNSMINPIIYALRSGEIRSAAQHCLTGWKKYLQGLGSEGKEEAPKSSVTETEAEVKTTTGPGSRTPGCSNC

CCCCn1nc(C(C)(C)C)s/c1=N\C(=O)c1cc(C(F)(F)F)ccc1N/N=C\c1cccc(C)n1 [Example 35, N-[(2Z)-3-butyl-5-tert-butyl-1,3,4-thiadiazol-2(3H)-ylidene]-2-{(2Z)-2-[(6-methylpyridin-2-yl)methylene]hydrazino}-5-(trifluoromethyl)benzamide] was tested, and the Ki (rat CB2) was 20 nM and the Ki (human CB2 receptors) was 185 nM.
CCCCn1nc(C2(C)CC2)s/c1=N\C(=O)c1cc(C(F)(F)F)ccc1ONC(C)(C)C [Example 145, 2-[(tert-butylamino)oxy]-N-[(2Z)-3-butyl-5-(1-methylcyclopropyl)-1,3,4-thiadiazol-2(3H)-ylidene]-5-(trifluoromethyl)benzamide] was tested, and the Ki (rat CB2; [1]) was 2.5 nM and the Ki (human CB2 receptors; [2]) was 16 nM.
Cn1c(C(C)(C)C)c/c(=N\C(=O)c2cc(C(F)(F)F)ccc2ONC(C)(C)C)n1CC1CC1 [Example 146, 2-[(tert-butylamino)oxy]-N-[(3E)-5-tert-butyl-2-(cyclopropylmethyl)-1-methyl-1,2-dihydro-3H-pyrazol-3-ylidene]-5-(trifluoromethyl)benzamide] gave a Ki (rat CB2) of 14 nM and a Ki (human CB2 receptors) of 54 nM.
In the case of CC(C)(C)NOc1ccc(C(F)(F)F)cc1C(=O)/N=c1\sc(C(C)(C)C)nn1CC1CCCCO1 (centres unmarked) [Example 147, 2-[(tert-butylamino)oxy]-N-[(2Z)-5-tert-butyl-3-(tetrahydro-2H-pyran-2-ylmethyl)-1,3,4-thiadiazol-2(3H)-ylidene]-5-(trifluoromethyl)benzamide], the Ki (rat CB2; [1]) is reported as 0.7 nM and the Ki (human CB2 receptors; [2]) is reported as 1.7 nM.
With CCCCn1nc(C(C)(C)C)s/c1=N\C(=O)c1cc(C(F)(F)F)ccc1/N=N/C(C)(C)C [Example 148, N-[(2Z)-3-butyl-5-tert-butyl-1,3,4-thiadiazol-2(3H)-ylidene]-2-[(E)-tert-butyldiazenyl]-5-(trifluoromethyl)benzamide] the Ki (rat CB2; [1]) was 15 nM and the Ki (human CB2 receptors; [2]) was 6.2 nM.
With CCCCn1/c(=N/C(=O)c2cc(C(F)(F)F)ccc2ONC(C)(C)C)cc(C(C)(C)C)n1C [Example 149, 2-[(tert-butylamino)oxy]-N-[(3E)-2-butyl-5-tert-butyl-1-methyl-1,2-dihydro-3H-pyrazol-3-ylidene]-5-(trifluoromethyl)benzamide] the Ki (rat CB2) was 5.5 nM and the Ki (human CB2 receptors) was 77 nM.
CCCCn1nc(C(C)(C)C)s/c1=N\C(=O)c1cc(C(F)(F)F)ccc1O/N=C(\C)C(C)(C)C [Example 150, N-[(2Z)-3-butyl-5-tert-butyl-1,3,4-thiadiazol-2(3H)-ylidene]-5-(trifluoromethyl)-2-({[(1E)-1,2,2-trimethylpropylidene]amino}oxy)benzamide] gave a Ki (rat CB2; [1]) of 283 nM and a Ki (human CB2 receptors; [2]) of 216 nM.
Compound CC(C)Cn1nc(C(C)(C)C)s/c1=N\C(=O)c1cc(C(F)(F)F)ccc1ONC(C)(C)C [Example 152, 2-[(tert-butylamino)oxy]-N-[(2Z)-5-tert-butyl-3-isobutyl-1,3,4-thiadiazol-2(3H)-ylidene]-5-(trifluoromethyl)benzamide] has a Ki (rat CB2; [1]) of 31 nM and a Ki (human CB2 receptors; [2]) of 29 nM.
In the case of Cn1c(C(C)(C)C)c/c(=N\C(=O)c2cc(C(F)(F)F)ccc2ONC(C)(C)C)n1CC1CCC1 [Example 155, 2-[(tert-butylamino)oxy]-N-[(3E)-5-tert-butyl-2-(cyclobutylmethyl)-1-methyl-1,2-dihydro-3H-pyrazol-3-ylidene]-5-(trifluoromethyl)benzamide], the Ki (rat CB2) is reported as 14 nM and the Ki (human CB2 receptors) is reported as 27 nM.
Cn1c(C(C)(C)C)c/c(=N\C(=O)c2cc(C(F)(F)F)ccc2ONC(C)(C)C)n1CCC(F)(F)F [Example 156, 2-[(tert-butylamino)oxy]-N-[(3E)-5-tert-butyl-1-methyl-2-(3,3,3-trifluoropropyl)-1,2-dihydro-3H-pyrazol-3-ylidene]-5-(trifluoromethyl)benzamide] showed a Ki (rat CB2) of 10 nM and a Ki (human CB2 receptors) of 68 nM.
With CCCCn1ccc(C(C)(C)C)c/c1=N\C(=O)c1cc(C(F)(F)F)ccc1ONC(C)(C)C [Example 157, 2-[(tert-butylamino)oxy]-N-[(2E)-1-butyl-4-tert-butylpyridin-2(1H)-ylidene]-5-(trifluoromethyl)benzamide] the Ki (rat CB2; [1]) was 9.4 nM and the Ki (human CB2 receptors; [2]) was 128 nM.
Compound COCCn1nc(C(C)(C)C)s/c1=N\C(=O)c1cc(C(F)(F)F)ccc1ONC(C)(C)C [Example 158, 2-[(tert-butylamino)oxy]-N-[(2Z)-5-tert-butyl-3-(2-methoxyethyl)-1,3,4-thiadiazol-2(3H)-ylidene]-5-(trifluoromethyl)benzamide] has a Ki (rat CB2; [1]) of 3.6 nM and a Ki (human CB2 receptors; [2]) of 39 nM.
CCCCn1/c(=N/C(=O)c2cc(C(F)(F)F)ccc2ONC(C)C)cc(C(C)(C)C)n1C [Example 159, N-[(3E)-2-butyl-5-tert-butyl-1-methyl-1,2-dihydro-3H-pyrazol-3-ylidene]-2-[(isopropylamino)oxy]-5-(trifluoromethyl)benzamide] was tested, and the Ki (rat CB2; [1]) was 5.2 nM and the Ki (human CB2 receptors; [2]) was 16 nM.
Work on CCCCn1cc(C(C)(C)C)cc/c1=N\C(=O)c1cc(C(F)(F)F)ccc1ONC(C)(C)C [Example 160, 2-[(tert-butylamino)oxy]-N-[(2E)-1-butyl-5-tert-butylpyridin-2(1H)-ylidene]-5-(trifluoromethyl)benzamide] yielded a Ki (rat CB2; [1]) of 5.9 nM and a Ki (human CB2 receptors; [2]) of 88 nM.
Cn1c(C(C)(C)C)c/c(=N\C(=O)c2cc(C#N)ccc2ONC(C)(C)C)n1C[C@H]1CCCO1 [Example 161, 2-[(tert-butylamino)oxy]-N-{(3E)-5-tert-butyl-1-methyl-2-[(2R)-tetrahydrofuran-2-ylmethyl]-1,2-dihydro-3H-pyrazol-3-ylidene}-5-cyanobenzamide] gave a Ki (rat CB2; [1]) of 11 nM and a Ki (human CB2 receptors; [2]) of 209 nM.
For CCCCn1nc(C(C)(C)C)s/c1=N\C(=O)c1cc(Cl)ccc1ONC(C)(C)C [Example 162, 2-[(tert-butylamino)oxy]-N-[(2Z)-3-butyl-5-tert-butyl-1,3,4-thiadiazol-2(3H)-ylidene]-5-chlorobenzamide], the Ki (rat CB2; [1]) was 0.6 nM and the Ki (human CB2 receptors; [2]) was 8.5 nM.
With CC(C)(C)NOc1ccc(C(F)(F)F)cc1C(=O)/N=c1\sc(C(C)(C)C)nn1CC1CC1 [Example 163, 2-[(tert-butylamino)oxy]-N-[(2Z)-5-tert-butyl-3-(cyclopropylmethyl)-1,3,4-thiadiazol-2(3H)-ylidene]-5-(trifluoromethyl)benzamide] the Ki (rat CB2; [1]) was 3 nM and the Ki (human CB2 receptors; [2]) was 16 nM.
Cn1c(C(C)(C)C)c/c(=N\C(=O)c2cc(Cl)ccc2ONC(C)(C)C)n1C[C@H]1CCCO1 [Example 168, 2-[(tert-butylamino)oxy]-N-{(3E)-5-tert-butyl-1-methyl-2-[(2R)-tetrahydrofuran-2-ylmethyl]-1,2-dihydro-3H-pyrazol-3-ylidene}-5-chlorobenzamide] showed a Ki (rat CB2; [1]) of 21 nM and a Ki (human CB2 receptors; [2]) of 52 nM.
Compound CCCCn1nc(C(C)(C)C)s/c1=N\C(=O)c1cc(C(F)(F)F)ccc1ONC(=O)C(C)(C)C [Example 169, N-[(2Z)-3-butyl-5-tert-butyl-1,3,4-thiadiazol-2(3H)-ylidene]-2-{[(2,2-dimethylpropanoyl)amino]oxy}-5-(trifluoromethyl)benzamide] has a Ki (rat CB2; [1]) of 0.6 nM and a Ki (human CB2 receptors; [2]) of 0.6 nM.
For CCCCn1nc(C(C)(C)C)s/c1=N\C(=O)c1ccc(C(F)(F)F)cc1ONC(C)(C)C [Example 170, 2-[(tert-butylamino)oxy]-N-[(2Z)-3-butyl-5-tert-butyl-1,3,4-thiadiazol-2(3H)-ylidene]-4-(trifluoromethyl)benzamide], the Ki (rat CB2; [1]) was 6.3 nM and the Ki (human CB2 receptors; [2]) was 127 nM.
With CCCCn1nc(C(C)(C)C)s/c1=N\C(=O)c1cc(C(F)(F)F)ccc1ON(C)C [Example 171, N-[(2Z)-3-butyl-5-tert-butyl-1,3,4-thiadiazol-2(3H)-ylidene]-2-[(dimethylamino)oxy]-5-(trifluoromethyl)benzamide] the Ki (rat CB2) was 4.9 nM and the Ki (human CB2 receptors) was 21 nM.
CC(C)(C)NOc1ccc(C(F)(F)F)cc1C(=O)/N=c1\sc(C(C)(C)C)nn1CCCCF [Example 174, 2-[(tert-butylamino)oxy]-N-[(2Z)-5-tert-butyl-3-(4-fluorobutyl)-1,3,4-thiadiazol-2(3H)-ylidene]-5-(trifluoromethyl)benzamide] gave a Ki (rat CB2; [1]) of 1.1 nM and a Ki (human CB2 receptors; [2]) of 6.2 nM.

— patent US8859596B2, “Compounds as cannabinoid receptor ligands” (priority 2008, dated 2014)
